One may read the hepatocyte CLint as the capacity of the preparation to metabolise the compound, expressed as a volume cleared per time. The low end stands for slow turnover, the high end for rapid turnover. What is called EC50 is the concentration needed to bring the measured effect to its halfway point. By IC50 is commonly meant the concentration that inhibits the measured activity by half.

Where two headings read alike, the source gives them in different places. A value given as a limit tells only on which side of the number the result lay.

The nature of data set [1]: Hepatocyte Stability Assay, mouse hepatocytes. It counts as in vitro ADME. To be noted: for hepatocyte CLint at 1 uM: male, CD-1, cryopreserved hepatocytes, pH 7.3, mouse hepatocytes 0.7 million cells per mL, 1 uM compound; for Hepatocyte Stability Mouse % rem. 120 min: mouse hepatocytes. In outline: (§1)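 Pooled cryopreserved hepatocytes (male CD-1 mice, ≥10; mixed-gender human donors, ≥10) at 0.7 million viable cells/mL in Krebs-Heinslet buffer pH 7.3, compound 1 uM, ≤0.01% DMSO. Incubated at 37° C./5% CO2 up to 2 h, acetonitrile-quenched; parent peak area by HPLC-MS/MS.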

Data set [2] in a line: Hepatocyte Stability Assay, human hepatocytes. As to conditions: for hepatocyte CLint at 1 uM: both sexes, cryopreserved hepatocytes, pH 7.3, human hepatocytes 0.7 million cells per mL, 1 uM compound; for Hepatocyte Stability Human % rem. 120 min: human hepatocytes. The data set is classed as in vitro ADME. In a few lines: as §1
In data set [3] the test system is pDNA-PK induction in HCT116 tumour spheroids. The experiment in a line: Multicellular tumour spheroid + radiation, pDNA-PK (ser2056) inhibition, immunohistochemical endpoint, HCT116. The data set is classed as cell-based. To be noted: Homo sapiens, HCT-116, 20 Gy, 2 hours following radiation, 20% O2. In outline: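 HCT116 spheroids (~0.5 mm) in MEM/10% FBS, 20% O2, 37° C., pre-incubated 1 h with compound (10 or 5 μM down to 3.5 nM), irradiated 20 Gy, then 2 h further with compound. Cryosections immunostained for pDNA-PK ser2056; EC50 is concentration halving radiation-induced pDNA-PK.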

In a further data set the target is T1, DNA-PK (Homo sapiens, UniProt P78527).
T1 construct: purchased Invitrogen PR9107A
Put plainly: DNA-PK Assay for Biochemical Enzymatic Inhibition (ADP Glo Kinase assay). To be noted: DNA-PK enzyme, Table 1. In outline:
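Human DNA-PK (25 ng) preincubated 15 min with compounds (ten three-fold dilutions) in HEPES pH 7.5, MgCl2, KCl, calf thymus DNA buffer, then substrate 434.4 μM and ATP 64.4 μM (final) for 60 min at room temperature. ADP-Glo luminescence; percent inhibition fitted by four-parameter regression for IC50.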

Setting [4] is: Example 9 Study 2, read-out: Spheroid Cell line: HCT116 Immunohistochemical endpoint pDNA-PK inhibition EC50.
[5] abbreviates: Spheroid, Cell Line: HCT115 (so in the source), Example 7, read-out: EC50, Immunohistochemical endpoint, pDNA-PK inhibition.

`O=S(=O)(CF)Nc1cnc2cc(N3CCOCC3)nc(O[C@H]3CC[C@@H](Nc4ncccn4)CC3)c2c1` [Compound 192, 1-fluoro-N-(7-morpholino-5-(((1s,4s)-4-(pyrimidin-2-ylamino)cyclohexyl)oxy)-1,6-naphthyridin-3-yl)methanesulfonamide]: the hepatocyte CLint at 1 uM in data set [1] and in data set [2] was below 8.2 µL/min/1e6 cells throughout. In data set [1], the “Hepatocyte Stability Mouse % rem. 120 min” value was “H (% remaining = 75-100%)”. In data set [2], the “Hepatocyte Stability Human % rem. 120 min” value is “H (% remaining = 75-100%)”. Moreover, the half-maximal effective concentration (EC50) in data set [3] (setting [4]) and in data set [3] (setting [5]) was 10 to 500 nM in each case. Further, on DNA-PK, the IC50 was below 0.5 nM.
Regarding `O=S(=O)(CC(F)F)Nc1cnc2cc(N3CCOCC3)nc(O[C@H]3CC[C@@H](Nc4ncccn4)CC3)c2c1` [Compound 193, 2,2-difluoro-N-(7-morpholino-5-(((1s,4s)-4-(pyrimidin-2-ylamino)cyclohexyl)oxy)-1,6-naphthyridin-3-yl)ethane-1-sulfonamide], the hepatocyte CLint at 1 uM in data set [1] was above 8.2 µL/min/1e6 cells; in data set [2] it was below 8.2 µL/min/1e6 cells. Further, in data set [1], the “Hepatocyte Stability Mouse % rem. 120 min” value is reported as “F (% remaining = 25-50%)”. For the same compound, the “Hepatocyte Stability Human % rem. 120 min” value in data set [2] was “G (% remaining = 50-75%)”. Besides, the 50% effective concentration (EC50) in data set [3] (setting [4]) and in data set [3] (setting [5]) was 1000 to 10000 nM throughout. The half-inhibitory concentration (IC50) at DNA-PK lay within 0.5 to 1 nM.
For the compound `CS(=O)(=O)c1cnc2cc(N3CCOCC3)nc(O[C@H]3CC[C@@H](Nc4ncccn4)CC3)c2c1` [Compound 200b, N-((1s,4s)-4-((3-(methylsulfonyl)-7-morpholino-1,6-naphthyridin-5-yl)oxy)cyclohexyl)pyrimidin-2-amine], in data set [1], the intrinsic metabolic clearance (hepatocyte CLint) at 1 uM was below 8.2 µL/min/1e6 cells and the “Hepatocyte Stability Mouse % rem. 120 min” value is given as “G (% remaining = 50-75%)”. In addition, in data set [2], the intrinsic metabolic clearance (hepatocyte CLint) at 1 uM was below 8.2 µL/min/1e6 cells and the “Hepatocyte Stability Human % rem. 120 min” value was “G (% remaining = 50-75%)”. For the same compound, the EC50 in data set [3] (setting [4]) was 1000 to 10000 nM. In addition, the EC50 in data set [3] (setting [5]) lay in the range of 1000 to 10000 nM. In addition, the IC50 at DNA-PK was below 0.5 nM.
Consider `CS(=O)(=O)c1cnc2cc(N3CCOCC3)nc(O[C@H]3CC[C@@H](Nc4ncc(OCC(=O)N5CCOCC5)cn4)CC3)c2c1` [Compound 204a, 2-((2-(((1s,4s)-4-((3-(methylsulfonyl)-7-morpholino-1,6-naphthyridin-5-yl)oxy)cyclohexyl)amino)pyrimidin-5-yl)oxy)-1-morpholinoethan-1-one], for which, in data set [1], the intrinsic metabolic clearance (hepatocyte CLint) at 1 uM was below 8.2 µL/min/1e6 cells and the “Hepatocyte Stability Mouse % rem. 120 min” value was “H (% remaining = 75-100%)”. Further, in data set [2], the intrinsic clearance (hepatocyte CLint) at 1 uM is below 8.2 µL/min/1e6 cells and the “Hepatocyte Stability Human % rem. 120 min” value was “H (% remaining = 75-100%)”. The half-maximal effective concentration (EC50) in data set [3] (setting [4]) was 1000 to 10000 nM. The concentration for a half-maximal effect (EC50) in data set [3] (setting [5]) is 1000 to 10000 nM. Besides, at DNA-PK, the IC50 fell in the range of 1 to 10 nM.
For the compound `CS(=O)(=O)c1cnc2cc(N3CCOCC3)nc(O[C@H]3CC[C@@H](Nc4ncnc5ccoc45)CC3)c2c1` [Compound 204b, N-((1s,4s)-4-((3-(methylsulfonyl)-7-morpholino-1,6-naphthyridin-5-yl)oxy)cyclohexyl)furo[3,2-d]pyrimidin-4-amine], the hepatocyte CLint at 1 uM in data set [1] and in data set [2] was below 8.2 µL/min/1e6 cells throughout. For the same compound, the “Hepatocyte Stability Mouse % rem. 120 min” value in data set [1] is on record as “G (% remaining = 50-75%)”. In addition, the “Hepatocyte Stability Human % rem. 120 min” value in data set [2] was “G (% remaining = 50-75%)”. Also, the EC50 in data set [3] (setting [4]) and in data set [3] (setting [5]) was 10 to 500 nM throughout. In addition, on DNA-PK, the IC50 is below 0.5 nM.
For the compound `CS(=O)(=O)c1cnc2cc(N3CCOCC3)nc(O[C@H]3CC[C@@H](NC(=O)c4ncco4)CC3)c2c1` [Compound 204c, N-((1s,4s)-4-((3-(methylsulfonyl)-7-morpholino-1,6-naphthyridin-5-yl)oxy)cyclohexyl)oxazole-2-carboxamide], in data set [1], the hepatocyte CLint at 1 uM is below 8.2 µL/min/1e6 cells and the “Hepatocyte Stability Mouse % rem. 120 min” value was “G (% remaining = 50-75%)”. Also, in data set [2], the intrinsic clearance (hepatocyte CLint) at 1 uM is below 8.2 µL/min/1e6 cells and the “Hepatocyte Stability Human % rem. 120 min” value was “H (% remaining = 75-100%)”. Further, in data set [3] (setting [4]), the EC50 is 1000 to 10000 nM. In addition, in data set [3] (setting [5]), the concentration giving a half-maximal response (EC50) lay within 1000 to 10000 nM. On DNA-PK, the half-maximal inhibitory concentration (IC50) was 1 to 10 nM.

Source of the values: patent publication US20240239790A1, “7-Morpholino-1,6-Naphthyridin-5-yl Derivatives and Pharmaceutical Compositions Thereof Useful as DNA-PK Inhibitor” (adMare Therapeutics Society, priority 2021, published 2024).
